Reference: article doi:10.1101/2020.01.06.895540v1 (biorxiv, 2020)

Tests used:
Experiment in all cases: cell-based
Design in all cases: species or system Hana3A
hOR5R1 = target: T1, hOR5R1 (Homo sapiens, UniProt Q8NH85)
T1 sequence (Q8NH85 1-324): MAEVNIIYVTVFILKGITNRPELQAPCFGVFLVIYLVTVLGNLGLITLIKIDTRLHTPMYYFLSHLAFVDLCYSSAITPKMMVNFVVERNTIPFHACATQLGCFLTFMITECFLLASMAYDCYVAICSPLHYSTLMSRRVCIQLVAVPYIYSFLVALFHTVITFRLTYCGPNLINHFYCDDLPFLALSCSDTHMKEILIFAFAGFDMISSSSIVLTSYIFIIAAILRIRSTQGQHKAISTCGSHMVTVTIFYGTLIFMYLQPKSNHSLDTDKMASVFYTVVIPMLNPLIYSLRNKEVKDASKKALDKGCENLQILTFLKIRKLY

hOR11H12 = target: T2, hOR11H12 (Homo sapiens, UniProt B2RN74)
T2 sequence (B2RN74 1-326): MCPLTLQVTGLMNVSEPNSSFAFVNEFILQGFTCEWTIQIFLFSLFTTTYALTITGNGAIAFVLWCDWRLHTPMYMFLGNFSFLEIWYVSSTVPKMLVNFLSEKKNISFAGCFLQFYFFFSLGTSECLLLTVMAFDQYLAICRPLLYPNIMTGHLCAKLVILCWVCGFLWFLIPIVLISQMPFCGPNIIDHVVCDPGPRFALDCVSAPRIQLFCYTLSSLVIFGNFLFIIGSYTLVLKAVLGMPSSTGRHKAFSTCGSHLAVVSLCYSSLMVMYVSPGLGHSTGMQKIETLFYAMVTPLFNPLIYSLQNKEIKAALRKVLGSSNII

hOR8B2 = target: T3, hOR8B2 (Homo sapiens, UniProt Q96RD0)
T3 sequence (Q96RD0 1-313): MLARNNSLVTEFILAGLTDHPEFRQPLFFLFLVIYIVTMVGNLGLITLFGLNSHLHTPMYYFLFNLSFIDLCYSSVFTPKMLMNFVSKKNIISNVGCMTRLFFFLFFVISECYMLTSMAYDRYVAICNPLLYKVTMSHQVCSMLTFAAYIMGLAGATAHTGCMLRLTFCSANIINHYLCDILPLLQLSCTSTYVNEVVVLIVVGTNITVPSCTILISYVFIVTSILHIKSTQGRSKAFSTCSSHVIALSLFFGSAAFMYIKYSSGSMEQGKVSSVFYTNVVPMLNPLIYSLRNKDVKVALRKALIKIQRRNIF

hOR8K5 = target: T4, hOR8K5 (Homo sapiens, UniProt Q8NH50)
T4 sequence (Q8NH50 1-307): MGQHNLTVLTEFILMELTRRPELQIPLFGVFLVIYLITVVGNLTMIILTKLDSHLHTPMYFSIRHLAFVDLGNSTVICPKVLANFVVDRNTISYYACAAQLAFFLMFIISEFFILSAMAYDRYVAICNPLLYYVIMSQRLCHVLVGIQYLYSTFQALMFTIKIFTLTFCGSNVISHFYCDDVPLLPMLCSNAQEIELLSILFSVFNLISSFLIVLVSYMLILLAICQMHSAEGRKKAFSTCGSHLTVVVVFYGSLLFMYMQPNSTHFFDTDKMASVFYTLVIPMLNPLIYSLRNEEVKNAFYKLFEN

| EC50 (hOR5R1) | EC50 (hOR11H12) | EC50 (hOR8B2) | EC50 (hOR8K5) | Compound |
| --- | --- | --- | --- | --- |
| 218 µM | > 1000 µM | 15 µM | > 1000 µM | O=C1CCOc2ccccc21 [4-chromanone] |
| 12 µM | 16.3 µM | > 1000 µM | 4.5 µM | C=C(C)[C@@H]1CC=C(C)C(=O)C1 [R-carvone] |
| 3.4 µM | 4.7 µM | > 1000 µM | > 1000 µM | CC(=O)c1ccccc1 [acetophenone] |
| 10.2 µM | 91.9 µM | > 1000 µM | > 1000 µM | O=c1ccc2ccccc2o1 [coumarin] |
